# Experimental data: patent EP1202975B1, “SUBSTITUTED POLYCYCLIC ARYL AND HETEROARYL PYRAZINONES USEFUL FOR SELECTIVE INHIBITION OF THE COAGULATION CASCADE” (Pharmacia Corporation, priority 1999, dated 2000)
# Read-outs that look alike come from different tables or passages of the source.
# How the values were obtained:
# TF-VIIa = target: T1, TF-VIIa (Homo sapiens, UniProt P08709); assay: TF-VIIa Assay; assay type: biochemical
# T1 construct: 2nM recombinant human factor VIIa; purchased American Diagnostica, Greenwich CT; host or cells: soluble TF made in house in E. coli
# T1 sequence (P08709 213-466 limits assumed): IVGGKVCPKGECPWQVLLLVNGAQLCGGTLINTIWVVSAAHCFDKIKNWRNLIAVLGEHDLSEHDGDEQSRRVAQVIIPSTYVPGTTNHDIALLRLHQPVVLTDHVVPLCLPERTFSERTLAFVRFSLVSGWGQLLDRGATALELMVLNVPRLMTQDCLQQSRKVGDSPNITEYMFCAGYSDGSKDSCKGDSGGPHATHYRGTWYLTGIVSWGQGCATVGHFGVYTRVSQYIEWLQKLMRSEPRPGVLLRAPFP
# T1 sequence (P08709 61-212 limits assumed): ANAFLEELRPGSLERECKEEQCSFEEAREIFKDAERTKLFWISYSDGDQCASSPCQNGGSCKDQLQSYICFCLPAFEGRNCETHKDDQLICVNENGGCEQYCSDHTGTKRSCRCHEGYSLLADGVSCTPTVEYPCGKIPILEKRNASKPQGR
# T1 sequence (P13726 33-251 partner limits assumed): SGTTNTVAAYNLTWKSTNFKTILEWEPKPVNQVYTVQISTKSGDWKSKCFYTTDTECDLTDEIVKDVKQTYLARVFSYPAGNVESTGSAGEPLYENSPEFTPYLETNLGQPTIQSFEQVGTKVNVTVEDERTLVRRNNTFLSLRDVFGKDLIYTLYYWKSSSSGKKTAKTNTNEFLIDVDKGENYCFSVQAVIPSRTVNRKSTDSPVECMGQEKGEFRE
# Human factor Xa = Human factor Xa (Homo sapiens, UniProt P00742); assay: Xa Assay; settings: for IC50 or % Inhibition Factor Xa (30 µM): % inhibition at 30 µM
# Chain of Human factor Xa (P00742 235-488 limits assumed): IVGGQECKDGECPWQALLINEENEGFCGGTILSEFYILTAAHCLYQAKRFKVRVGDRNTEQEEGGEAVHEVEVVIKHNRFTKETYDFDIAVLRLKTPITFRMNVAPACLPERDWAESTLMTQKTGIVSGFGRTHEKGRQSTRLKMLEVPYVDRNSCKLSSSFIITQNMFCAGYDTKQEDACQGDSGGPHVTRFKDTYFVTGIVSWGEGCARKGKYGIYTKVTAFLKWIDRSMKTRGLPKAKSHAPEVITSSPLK
# Chain of Human factor Xa (P00742 41-179 limits assumed): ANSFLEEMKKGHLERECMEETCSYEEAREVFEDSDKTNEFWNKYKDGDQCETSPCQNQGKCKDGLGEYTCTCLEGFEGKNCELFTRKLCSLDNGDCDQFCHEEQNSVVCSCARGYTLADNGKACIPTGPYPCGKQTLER
# [1] = read-out: IC50 or % Inhibition TF-VIIa (30 µM); cells given as a plain number (IC50)
# [2] = read-out: IC50 or % Inhibition Factor Xa (30 µM), cells given as a plain number (IC50)
# [3] = cells given as a plain number (IC50); read-out: IC50 or % Inhibition TF-VIIa (30 µM)
IC50 (TF-VIIa; [1]) [nM],IC50 (Human factor Xa; [2]) [µM],IC50 (TF-VIIa; [3]) [nM],SMILES,also measured
5700,> 30,–,N=C(N)c1ccc(CNC(=O)Cn2c(-c3cccc(Br)c3)c(Cl)nc(NCc3ccccc3)c2=O)cc1 [1515-10],–
60,> 30,–,CC(C)CNc1nc(Cl)c(-c2cccc(N)c2)n(CC(=O)NCc2ccc(C(=N)N)cc2)c1=O [1526-26],–
–,> 30,100,N=C(N)c1ccc(CNC(=O)Cn2c(-c3cccc(N)c3)c(Cl)nc(NCc3ccccc3)c2=O)cc1 [compound 88],–
120,> 30,–,C[C@H](Nc1nc(Cl)c(-c2cccc(N)c2)n(CC(=O)NCc2ccc(C(=N)N)cc2)c1=O)C1CCCCC1 [1526-29],–
260,> 30,–,N=C(N)c1ccc(CNC(=O)Cn2c(-c3cccc(N)c3)c(Cl)nc(NC[C@@H]3CCCO3)c2=O)cc1 [1526-33],–
–,> 30,2300,N=C(N)c1ccc(CNC(=O)Cn2c(-c3cccc(F)c3)c(Cl)nc(NCCc3ccccc3)c2=O)cc1 [1515-33],–
–,–,6500,N=C(N)c1ccc(CNC(=O)Cn2c(-c3ccccc3)c(Cl)nc(NC3CCCCCC3)c2=O)cc1 [1512-16],IC50 or % Inhibition Factor Xa (30 µM) (Human factor Xa): 10%
3700,> 30,–,N=C(N)c1ccc(CNC(=O)Cn2c(-c3ccccc3)c(Cl)nc(NC3CC3)c2=O)cc1 [1507-31],–
2900,> 30,–,COc1ccccc1-c1c(Cl)nc(NC2CCC2)c(=O)n1CC(=O)NCc1ccc(C(=N)N)cc1 [1515-14],–
–,> 30,–,N=C(N)c1ccc(CNC(=O)Cn2c(-c3ccccc3)c(Cl)nc(NCc3cccc4ccccc34)c2=O)cc1 [1507-28],IC50 or % Inhibition TF-VIIa (30 µM) (TF-VIIa): 38%
30,> 30,–,CC[C@H](C)Nc1nc(Cl)c(-c2cccc(N)c2)n(CC(=O)NCc2ccc(C(=N)N)cc2)c1=O [1526-09],–
4300,> 30,–,N=C(N)c1ccc(CNC(=O)Cn2c(-c3ccccc3F)c(Cl)nc(NCc3ccccc3)c2=O)cc1 [1515-11],–
–,–,–,CCCCNc1nc(Cl)c(-c2ccccc2)n(CC(=O)NCc2ccc(C(=N)N)cc2)c1=O [1517-35],IC50 or % Inhibition TF-VIIa (30 µM) (TF-VIIa; % inhibition at 30 µM): 33%; IC50 or % Inhibition Factor Xa (30 µM) (Human factor Xa): 0%
20500,> 30,–,N=C(N)c1ccc(CNC(=O)Cn2c(-c3ccccc3)c(Cl)nc(NCc3ccc(F)cc3F)c2=O)cc1 [1507-26],–
–,–,500,N=C(N)CCNc1nc(Cl)c(-c2ccccc2)n(CC(=O)NCc2ccc(C(=N)N)cc2)c1=O [Example 50],IC50 or % Inhibition Factor Xa (30 µM) (Human factor Xa): 39%
30,> 30,–,N=C(N)c1ccc(CNC(=O)Cn2c(-c3cccc(N)c3)c(Cl)nc(NC3CCC3)c2=O)cc1 [1526-23],–
50,> 30,–,C#CCNc1nc(Cl)c(-c2cccc(N)c2)n(CC(=O)NCc2ccc(C(=N)N)cc2)c1=O [1526-21],–
4100,> 30,–,N=C(N)c1ccc(CNC(=O)Cn2c(-c3cccc(F)c3)c(Cl)nc(NCc3ccccc3)c2=O)cc1 [1515-09],–
–,–,3000,N=C(N)NCCC[C@H](NC(=O)Cn1c(CCc2ccccc2)cnc(NCCc2ccccc2)c1=O)C(=O)c1nccs1 [Example 8],IC50 (Human factor Xa): 1 µM
7000,> 30,–,N=C(N)c1ccc(CNC(=O)Cn2c(-c3cccc(C(F)(F)F)c3)c(Cl)nc(NCc3ccccc3)c2=O)cc1 [1515-01],–

IC50 (TF-VIIa; [1]) [nM],IC50 (Human factor Xa; [2]) [µM],IC50 (TF-VIIa; [3]) [nM],SMILES,also measured
1000,> 30,–,N=C(N)c1ccc(CNC(=O)Cn2c(-c3ccccc3)c(Cl)nc(NCCCCN3CCCC3)c2=O)cc1 [1522-42],–
–,–,6170,CC(C)NC(=O)Nc1ncc(-c2ccccc2)n(CC(=O)NCc2ccc(C(=N)N)cc2)c1=O [Example 109],IC50 or % Inhibition Factor Xa (30 µM) (Human factor Xa): 10%
–,–,–,N=C(N)c1ccc(CNC(=O)Cn2c(-c3ccc(-c4ccccc4)cc3)c(Cl)nc(NCCc3cccnc3)c2=O)cc1 [Example 21],IC50 or % Inhibition TF-VIIa (30 µM) (TF-VIIa; % inhibition at 30 µM): 8%@30; IC50 or % Inhibition Factor Xa (30 µM) (Human factor Xa): 21%@30
–,> 30,2900,N=C(N)c1ccc(CNC(=O)Cn2c(-c3cccc(C(F)(F)F)c3)c(Cl)nc(NCCc3ccccc3)c2=O)cc1 [1515-25],–
–,> 30,40,Cc1c(N)cccc1-c1c(Cl)nc(NC(C)C)c(=O)n1CC(=O)NCc1ccc(C(=N)N)cc1 [compound 97],–
–,> 30,800,N=C(N)c1ccc(CNC(=O)Cn2c(-c3ccccc3)c(Cl)nc(NC3CC4CCC3C4)c2=O)cc1 (stereo not shown) [1522-44],–
–,> 30,1800,N=C(N)c1ccc(CNC(=O)Cn2c(-c3ccccc3F)c(Cl)nc(NCCc3ccccc3)c2=O)cc1 [1515-35],–
80,> 30,–,CC(C)(C)Nc1nc(Cl)c(-c2cccc(N)c2)n(CC(=O)NCc2ccc(C(=N)N)cc2)c1=O [1526-07],–
100,> 30,–,COCC(C)Nc1nc(Cl)c(-c2cccc(N)c2)n(CC(=O)NCc2ccc(C(=N)N)cc2)c1=O (stereo not shown) [1526-05],–
13400,> 30,–,N=C(N)c1ccc(CNC(=O)Cn2c(-c3ccccc3)c(Cl)nc(NCc3ccc(Br)cc3)c2=O)cc1 [1507-30],–
4000,> 30,–,CCN1CC(Nc2nc(Cl)c(-c3ccccc3)n(CC(=O)NCc3ccc(C(=N)N)cc3)c2=O)CN1CC [1522-35],–
–,> 30,–,N=C(N)c1ccc(CNC(=O)Cn2c(-c3ccccc3)c(Cl)nc(NCc3ccc(Cl)cc3Cl)c2=O)cc1 [1507-22],IC50 or % Inhibition TF-VIIa (30 µM) (TF-VIIa): 45%
–,–,570,N=C(N)NCCCCNc1nc(Cl)c(-c2ccccc2)n(CC(=O)NCc2ccc(C(=N)N)cc2)c1=O [Example 49],IC50 (Human factor Xa): 28.9 µM
–,–,300,N#CCCNc1nc(Cl)c(-c2ccccc2)n(CC(=O)NCc2ccc(C(=N)N)cc2)c1=O [Example 53],IC50 or % Inhibition Factor Xa (30 µM) (Human factor Xa): 7%
270,> 30,–,N=C(N)c1ccc(CNC(=O)Cn2c(-c3ccccc3)c(Cl)nc(NCCN3CCCC3)c2=O)cc1 [1522-08],–
26700,> 30,–,COc1ccc(CNc2nc(Cl)c(-c3ccccc3)n(CC(=O)NCc3ccc(C(=N)N)cc3)c2=O)cc1 [1507-13],–
–,–,200,N=C(N)NCCC[C@H](NC(=O)Cn1c(-c2ccccc2)c(Cl)nc(NCCc2ccccc2)c1=O)C(=O)c1nccs1 [Example 3],IC50 (Human factor Xa): 1 µM
–,> 30,1000,N=C(N)c1ccc(CNC(=O)Cn2c(-c3ccccc3)c(Cl)nc(NC3CCCCCC3)c2=O)cc1 [1522-36],–
29500,> 30,–,N=C(N)c1ccc(CNC(=O)Cn2c(-c3ccccc3)c(Cl)nc(NCc3ccc(OC(F)(F)F)cc3)c2=O)cc1 [1507-04],–
–,–,800,N=C(N)c1ccc(CNC(=O)Cn2c(-c3ccccc3)c(Cl)nc(NCCc3ccncc3)c2=O)cc1 [Example 19],IC50 or % Inhibition Factor Xa (30 µM) (Human factor Xa): 22%@30

IC50 (TF-VIIa; [1]) [nM],IC50 (Human factor Xa; [2]) [µM],IC50 (TF-VIIa; [3]) [nM],SMILES,also measured
–,> 30,40,CN(C)Nc1nc(Cl)c(-c2cccc(N)c2)n(CC(=O)NCc2ccc(C(=N)N)cc2)c1=O [compound 94],–
–,> 30,1000,N=C(N)c1ccc(CNC(=O)Cn2c(-c3ccccc3)c(Cl)nc(NC3CCS(=O)(=O)C3)c2=O)cc1 (stereo not shown) [1522-46],–
–,> 30,–,N=C(N)c1ccc(CNC(=O)Cn2c(-c3ccccc3)c(Cl)nc(NC(Cc3ccccc3)c3ccccc3)c2=O)cc1 (stereo not shown) [1507-07],IC50 or % Inhibition TF-VIIa (30 µM) (TF-VIIa): 25%
620,> 30,–,CC(C)CC(C)Nc1nc(Cl)c(-c2ccccc2)n(CC(=O)NCc2ccc(C(=N)N)cc2)c1=O (stereo not shown) [1522-17],–
30,> 30,–,N=C(N)c1ccc(CNC(=O)Cn2c(-c3cccc(N)c3)c(Cl)nc(NCC(F)(F)F)c2=O)cc1 [1526-04],–
60,> 30,–,CC(C)C(C)Nc1nc(Cl)c(-c2cccc(N)c2)n(CC(=O)NCc2ccc(C(=N)N)cc2)c1=O (stereo not shown) [1526-15],–
–,> 30,1600,COc1ccccc1-c1c(Cl)nc(NCCc2ccccc2)c(=O)n1CC(=O)NCc1ccc(C(=N)N)cc1 [1515-26],–
11600,> 30,–,N=C(N)c1ccc(CNC(=O)Cn2c(-c3ccccc3)c(Cl)nc(NCc3cccc(F)c3)c2=O)cc1 [1507-42],–
1700,> 30,–,N=C(N)c1ccc(CNC(=O)Cn2c(-c3cccs3)c(Cl)nc(NCc3ccccc3)c2=O)cc1 [1515-06],–
16000,> 30,–,N=C(N)c1ccc(CNC(=O)Cn2c(-c3ccccc3)c(Cl)nc(NCc3cccc(Cl)c3)c2=O)cc1 [1507-38],–
3800,> 30,–,COc1ccccc1-c1c(Cl)nc(NCc2ccccc2)c(=O)n1CC(=O)NCc1ccc(C(=N)N)cc1 [1515-02],–
–,–,430,Cc1ccccc1-c1c(Cl)nc(NCCc2ccccc2)c(=O)n1CC(=O)NCc1ccc(C(=N)N)cc1 [compound 78],IC50 or % Inhibition Factor Xa (30 µM) (Human factor Xa): 16%@30
20,> 30,–,N=C(N)c1ccc(CNC(=O)Cn2c(-c3cccc(N)c3)c(Cl)nc(NC3CC3)c2=O)cc1 [1526-01],–
–,–,1110,N=C(N)c1ccc(CNC(=O)Cn2c(-c3ccccc3)cnc(NC(=O)Nc3ccccc3)c2=O)cc1 [Example 106],IC50 or % Inhibition Factor Xa (30 µM) (Human factor Xa): 30%
800,> 30,–,C[C@H](Nc1nc(Cl)c(-c2ccccc2)n(CC(=O)NCc2ccc(C(=N)N)cc2)c1=O)C1CCCCC1 [1522-43],–
–,–,20000,N=C(N)c1ccc(CNC(=O)Cn2c(-c3ccc4ccccc4c3)c(Cl)nc(NCCc3ccccc3)c2=O)cc1 [compound 82],IC50 or % Inhibition Factor Xa (30 µM) (Human factor Xa): 32%@30
2000,> 30,–,N=C(N)c1ccc(CNC(=O)Cn2c(-c3ccccc3)c(Cl)nc(NCCNc3ncc(C(F)(F)F)cc3Cl)c2=O)cc1 [1522-37],–
–,–,1000,Cc1cccc(-c2c(Cl)nc(NCCc3ccccc3)c(=O)n2CC(=O)NCc2ccc(C(=N)N)cc2)c1 [compound 81],IC50 or % Inhibition Factor Xa (30 µM) (Human factor Xa): 33%@30
–,–,650,N=C(N)c1ccc(CNC(=O)Cn2c(-c3ccccc3)c(Cl)nc(NCc3ccc(C(=N)N)cc3)c2=O)cc1 [Example 51],IC50 (Human factor Xa): 9.68 µM
